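Compound exposure: 48 hours, 5 concentrations, 96-well plates. Here, GI50 denotes the concentration required for 50% inhibition of growth.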 Activity calls are given as the source filed them. Rule as the data show it: active = GI50 up to about 1.1 µM and inactive = higher.

In this assay the test system is BT-549. The experiment in a line: NCI anticancer screen, dose series, 48 h.

With `CC1CC(NN)=Nc2ccccc2N1` (centres undefined), the GI50 was > 100 µM (inactive).

Consider `S=C(Nc1ccc2cn[nH]c2c1)Nc1ccc2cn[nH]c2c1`, for which the GI50 is 27.6 µM (inactive).

Turning to `COC1(OC)C[C@H](C)[C@@]23O[C@]24C2=CC(=O)C=CC2=N[C@H]3C#C/C=C\C#C[C@]14O`, the GI50 is 1 µM (active).

For the compound `O=S(=O)(N/C(=N\O)Nc1ccc(Cl)cc1)c1cc2ccccc2o1`, the GI50 was 17.9 µM (inactive).

Turning to `Cc1nc2ccc(F)cc2c2c1CCN2c1ccccc1`, the GI50 is 23.4 µM (inactive).

`CC(C)(C)C(=O)c1c(O)c2ccccc2c2ccccc2c1=O`: the GI50 is 32.4 µM (inactive).

Regarding `O=C1/C(=C/c2ccccc2)CCc2ccc([N+](=O)[O-])cc21`, the GI50 is 31.3 µM (inactive).

For `Clc1ccc(/C=C/c2nc(-c3ccc(Cl)cc3)cn3c2nc2ccccc23)cc1`, the GI50 is > 100 µM (inactive).

In the case of `COC(=O)C1Cc2cc3c(cc2C1)CCC3`, the GI50 was > 100 µM (inactive).

With `COc1cc2cc(C(=O)N3CC(CCl)c4c3cc(NCCN)c3ccccc43)[nH]c2c(OC)c1OC` (centres undefined), the GI50 was 0.0333 µM (active).

Regarding `CC(=O)/C(=C\c1ccc(Cl)c(Cl)c1)C(=O)C(C)CN(C)C` (centres undefined), the GI50 was 2.26 µM (inactive).

As for `C[N+]12C=CC=C1C(N1CCCC1)c1sc(-c3ccc(Cl)cc3)cc12` (centres undefined), the GI50 is 10.3 µM (inactive).

On to `CC1=NNC(=O)C1C1CC(c2c[nH]c3ccccc23)=NNC1=S` (centres undefined), for which the GI50 is 50.2 µM (inactive).

Turning to `COc1cccc(C2c3cc4c(cc3OC(N3CCCCC3)C2C)OCO4)c1O` (centres undefined), the GI50 was 9.2 µM (inactive).

`OCc1ccc2c(c1)CC1(Cc3ccc(/C=N/O)cc3C1)C2` (centres undefined): the GI50 was 10.4 µM (inactive).

Turning to `COc1ccc(CCN2C(=O)C=CC2=O)cc1OC`, the GI50 is 17.5 µM (inactive).

`C[C@H]1CC(=O)C[C@@H]2CC[C@@H]3[C@H](CC[C@]4(C)C(OC(=O)c5cccc6c(=O)c7ccccc7[nH]c56)CC[C@@H]34)[C@]21C` (some centres undefined): the GI50 is 26.7 µM (inactive).

Turning to `O=C1c2ccccc2C(=O)c2c1c1cc(O)ccc1n2Cc1ccc(Cl)cc1Cl`, the GI50 is 18.5 µM (inactive).

As to `O=C(NN=C1NCCCCN1)Nc1ccc(Cl)cc1`, the GI50 is > 100 µM (inactive).

In the case of `CCn1c(=O)c2c3cc(OC(C)=O)ccc3oc2c2ccc(OC(C)=O)cc21`, the GI50 was 30.5 µM (inactive).

In the case of `c1ccc(/N=C2\c3ccccc3CN2c2ccccc2)cc1`, the GI50 was > 100 µM (inactive).

For `CNC(=O)CCC(NC(=O)OC(C)(C)C)C(=O)NC(Cc1ccc(NC(=O)CCCCC(C)=O)cc1)C(=O)NCC(=O)NC` (centres undefined), the GI50 was > 100 µM (inactive).

On to `CC(=O)OCC12C(=O)C[C@@H](C)C3(CC(c4ccoc4)OC3=O)C1CCC(OC(C)=O)C21CO1` (some centres undefined), for which the GI50 was > 100 µM (inactive).

In the case of `CC(C)(CO[C@H]1C[C@H]2CC[C@@]1(C)C2(C)C)[N+](=O)[O-]`, the GI50 is 21.5 µM (inactive).

Regarding `CC1CC(C(=O)OC2OC(COC3OC(CO)C(OC4OC(C)C(O)C(O)C4O)C(O)C3O)C(O)C(O)C2O)C2CCC3(C)C(=CCC4(C)C3CCC3C(C)(CO)C(O)C(O)CC34C)C2C1C` (centres undefined), the GI50 is 17.7 µM (inactive).

Regarding `Clc1ccccc1C(Nc1ncccn1)Nc1ncccn1`, the GI50 was > 100 µM (inactive).

Take `CSc1nc2cc(S(=O)(=O)N3CCCCC3)ccc2s1`: the GI50 is > 100 µM (inactive).

For `S=C1NCCN1C(=S)Nc1ccccc1`, the GI50 is 83 µM (inactive).

`CC1(C)[C@@H](Cn2cnc3c(N)ncnc32)CC[C@@]1(C)CO`: the GI50 is > 100 µM (inactive).

Turning to `C[C@]12CC[C@H]3[C@@H](CCC4=C(Br)C(=O)C=C[C@@]43O)[C@@H]1CCC2=O`, the GI50 is 20.7 µM (inactive).

As for `O=c1cnn(C2OC(CO)C(O)C(F)C2O)c(=O)[nH]1` (centres undefined), the GI50 was > 100 µM (inactive).

Consider `CC(C)CC(=O)NC(Nc1ccc(S(=O)(=O)Nc2ncccn2)cc1)(C(F)(F)F)C(F)(F)F`, for which the GI50 was > 100 µM (inactive).

As to `Cc1cc2c(cc1C)C(=O)C1(C2)Cc2c(C)ccc(C)c2C1=O` (centres undefined), the GI50 was > 100 µM (inactive).

Regarding `NS(=O)(=O)c1nnc(NC(=O)C23CC4CC(CC(C4)C2)C3)s1`, the GI50 was 82.2 µM (inactive).

Source of the values: ChEMBL document CHEMBL1201862, “PubChem BioAssay data set” (2004).
